Key:
[1] = test system: panel of 81 protein kinases and Class III PI3K family hVps34; assay: Kinase screening services (Dundee University and Invitrogen); type: biochemical; details: 81 protein kinases and hVps34
[2] = test system: human cancer cell lines with PI3K pathway aberrations; assay: Mouse xenograft models
in vitro = details: rat, plasma
[3] = rat
[4] = test system: lung, breast cancer and ovarian cancer cell lines; assay: In vitro cytotoxic activity and combinations, cell line panel; type: cell-based, human; details: agent alone
Experimental: Cells were plated in a 96-well clear-bottomed plates (Corning) and treated with varying concentrations of compounds for 4 days. […] by using a CellTiter Glo luminescent cell viability assay kit (Promega) and measured using a Victor X3 plate reader (Perkin Elmer). The data were normalised to the control group (empty vector or DMSO). The IC50 values were defined as the concentration that causes 50% growth inhibition. IC50 values were calculated using a logistic nonlinear regression, model no. 203 with XL fit v4.2 (IDBS, Guldford, Surry, UK). All experimental points were setup in three replicate wells and independently performed in duplicate.
The effects of drug combinations were evaluated using Chou-Talalay median effect analysis (28). Cells were treated with each drug alone and in combination in two independent 96-well plates in a diagonal matrix format, and proliferation was measured by using a CellTiter Glo kit (Promega). Results were expressed as surviving fractions (fraction affected, Fa), based on the measured luminescence counts of treated samples, compared to that of untreated controls. […]
In vitro cytotoxic activity was evaluated for the 5T4-ADC or the auristatin payloads in combination with various standard of care (SOC) agents or selected signaling inhibitors in lung, breast cancer and ovarian cancer cell lines. […]

[5] = test system: more than 50 diverse human tumor cell lines; assay: Anti-proliferative effect in tumor cell lines; type: cell-based
MDA-MB-361 = assay: Apoptosis induction; type: cell-based; details: at 4 h, cleaved PARP
[6] = test system: subcutaneous MDA-468 tumors; assay: Xenograft efficacy; type: in vivo, mouse; details: 5T4-ADC 2 mg/kg
Experimental: Female athymic nu/nu mice (18-23 g) were obtained from Charles River Laboratories, Wilmington, Mass. […] ADCs were administered based on mAb protein content at 2 or 3 mg Ab/kg on a Q4D×4 (every 4 day) schedule, with 8 to 10 mice per group. […] All procedures using mice were approved by the Pfizer Institutional Animal Care and Use Committee according to established guidelines. Time To Endpoint (time to no tumor or rate of tumor tripling) were used for comparison of drug-treated groups.

Q: With `COc1ccc(-c2cc3c(C)nc(N)nc3n([C@H]3CC[C@H](OCCO)CC3)c2=O)cn1` [Compound 1A, 2-amino-8-[trans-4-(2-hydroxyethoxy)cyclohexyl]-6-(6-methoxypyridin-3-yl)-4-methylpyrido[2,3-d]pyrimidin-7(8H)-one] as the molecule, how does the “concentration up to which no significant inhibitory activity was observed for any of the evaluated kinases” value [1] read?
A: > 10 µM

Q: What about the in vivo activity [2] of the same molecule?
A: has in vivo activity

Q: And the fraction unbound (in vitro)?
A: 0.202

Q: And the clearance [3]?
A: low clearance

Q: With `C#Cc1cccc(Nc2ncnc3cc(OCCOC)c(OCCOC)cc23)c1` [Erlotinib] as the molecule, how does the “sensitivity of most of the cell lines to the single agent” value [4] read?
A: relatively insensitive

Q: Which “sensitivity of most of the cell lines to the single agent” value [4] does the source give for `O=C(NOC[C@H](O)CO)c1ccc(F)c(F)c1Nc1ccc(I)cc1F` [PD-901] here?
A: relatively insensitive

Q: Which results are given for `CN(C)C1CCN(C(=O)c2ccc(NC(=O)Nc3ccc(-c4nc(N5CCOCC5)nc(N5CCOCC5)n4)cc3)cc2)CC1` [PF-384, 1-(4-{[4-(dimethylamino)piperidin-1-yl]carbonyl}phenyl)-3-[4-(4,6-dimorpholin-4-yl-1,3,5-triazin-2-yl)phenyl]urea]?
A: IC50 [5]: < 100 nM; concentration at which apoptosis was induced (MDA-MB-361): 30 nM

Q: Which “regressions / CRs by day 53” value ([6]; paclitaxel 22.5 mg/kg) does the source give for `CC(=O)O[C@H]1C(=O)[C@@]2(C)[C@H]([C@H](OC(=O)c3ccccc3)[C@]3(O)C[C@H](OC(=O)[C@H](O)[C@@H](NC(=O)c4ccccc4)c4ccccc4)C(C)=C1C3(C)C)[C@]1(OC(C)=O)CO[C@@H]1C[C@@H]2O` [paclitaxel] here?
A: 6/10

Q: And the “antitumor activity of monotherapy” value ([6]; paclitaxel 10 mg/kg)?
A: no pronounced effect on tumor growth

Source: patent US10617670B2, “Synergistic auristatin combinations” (priority 2014, dated 2020)
